Several values for one entry are separate records, joined by “and”; a condition that tells them apart may be missing. Identical values can stand only once.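 Briefly, cells in 96-well plates were exposed to five compound concentrations for 48 h, and endpoints were estimated by linear interpolation. Here, GI50 denotes the concentration required for 50% inhibition of growth. TGI is the concentration that stops growth completely.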 Some results are limits rather than exact numbers.

What all share (experiment): growth of human tumour cells (NCI), 48 h
The subject of test [1] is SW-620 colon.
The test system of test [2] is CCRF-CEM leukemia.
The subject of test [3] is SK-MEL-28 melanoma.
The subject of test [4] is MOLT-4 leukemia.
Test [5] relates to UO-31 renal.
In test [6] the test system is PC-3 prostate.
In test [7] the test system is SF-268 CNS.
Test [8] relates to NCI-H226 lung.
Test [9] relates to HOP-62 NSCLC.
Test [10] relates to IGROV1 ovarian.
The subject of test [11] is SF-295 CNS.
Test [12] concerns NCI/ADR-RES ovarian.

As to `CCC[C@H](NS(=O)c1ccc(C)cc1)C(C(=O)OCC)=C(c1ccccc1)c1ccccc1` (stereo partly drawn), the TGI in test [1] is greater than 100 µM; in [2], greater than 100 µM; in test [3], 58 µM; in [4], greater than 100 µM; in [5] it was 31.2 µM; in test [6], 50.7 µM. Further, the TGI in test [7] was greater than 100 µM; in test [8], 51.6 µM; in [9] it was 36.4 µM; in test [10], 75.8 µM; in test [11] it was 40 µM; in test [12], greater than 100 µM.
On to `Cc1nc2c(=O)n(-c3ccccc3)c3ccccc3c2o1`, for which the TGI in test [1], in test [2], in [3], in test [4], in test [5] and in test [6] was greater than 100 µM each time. Besides, the TGI in [7], in test [8], in test [9], in test [10], in [11] and in test [12] was greater than 100 µM in each case.
As for `CN(C)CCN=C1Nc2ccccc2C(=S)N2CSCC12` (stereo not drawn), the TGI in [1], in test [2], in test [3], in test [4], in test [5] and in [6] was greater than 100 µM in each case. Besides, the TGI in test [7], in [8], in test [9], in [10], in test [11] and in test [12] was greater than 100 µM in each case.
For `c1cc2c(c(NC3=NCCO3)c1)CCC2`, the TGI in [1], in test [2], in test [3], in test [4], in test [5] and in test [6] was greater than 100 µM in each case. The TGI in test [7], in [8], in test [9], in test [10], in test [11] and in test [12] was greater than 100 µM throughout.
Take `CC(C)(C)Nc1noc(=O)n1C(C)(C)C`: the TGI in test [1], in test [2], in test [3], in test [4], in [5] and in test [6] was greater than 100 µM in each case. Moreover, the TGI in [7], in test [8], in [9], in test [10], in test [11] and in test [12] was greater than 100 µM throughout.
In the case of `COC(=O)[C@@H]1CN(C(C)=O)C(=O)N1C(=O)OCc1ccccc1`, the TGI in [1], in test [2], in [3], in test [4], in test [5] and in test [6] was greater than 100 µM each time. The TGI in test [7], in test [8], in [9], in test [10], in [11] and in [12] was greater than 100 µM throughout.
Consider `COC(=O)C1OC(O[C@H]2CC[C@]3(C)[C@H]4CC=C5[C@@H]6CC(C)(C)CC[C@]6(C(=O)OC6OCC(O)C(O)C6OC6OC(C)C(OC7OCC(O)C(OC8OCC(O)C(O)C8O)C7O)C(OC7OCC(O)C(O)C7O)C6O)CC[C@@]5(C)[C@]4(C)CC[C@H]3C2(C)C)C(O)C(OC2OCC(O)C(O)C2O)C1O` (stereo partly drawn), for which the TGI is > 100 µM and 24 µM in [1]; > 100 µM and 30.2 µM in test [2]; 4.02 µM and 6.16 µM in test [3]; 27.6 µM and 28.4 µM in test [4]; 4.36 µM and 4.14 µM in [5]; 18.9 µM and 16.4 µM in [6]. Further, the TGI in test [7] was > 76.2 µM and 19.9 µM; in test [8] it was 11 µM and 17.8 µM; in test [9], 17.8 µM and 23.7 µM; in [10], > 100 µM and 24.9 µM; in test [11], 11.5 µM and 17 µM; in test [12], > 100 µM and 21 µM. For the same compound, the GI50 in [9] is 4.76 µM and 10.9 µM.
Take `Cc1nc(N/N=C/c2ccccc2Cl)[nH]c(=O)c1CCO`: the TGI in test [1], in test [2], in test [3], in test [4], in test [5] and in test [6] was greater than 100 µM each time. Further, the TGI in test [7] is greater than 100 µM; in [8], greater than 100 µM; in [9], 50.4 µM; in test [10], greater than 100 µM; in [11], 96 µM; in [12], greater than 100 µM.
Consider `CCN(CC)c1ccc2cc(C(=O)Nc3ccccc3)c(=N)oc2c1`, for which the TGI in test [1], in [2], in test [3], in test [4], in test [5] and in [6] was greater than 100 µM in each case. Besides, the TGI in test [7], in test [8], in test [9], in [10], in test [11] and in test [12] was greater than 100 µM in each case.
`COc1cc2cccc(N)c2cc1OC`: the TGI in [1], in test [2], in [3], in test [4], in [5] and in test [6] was greater than 100 µM in each case. In addition, the TGI in test [7], in test [8], in test [9], in test [10], in [11] and in test [12] was greater than 100 µM in each case.
Take `Cc1ccc(Nc2c(C#N)[n+]([O-])c3cc(Cl)ccc3[n+]2[O-])cc1`: the TGI in test [1], in [2], in test [3], in [4], in test [5] and in test [6] was greater than 100 µM throughout. For the same compound, the TGI in test [7], in test [8], in test [9], in test [10], in [11] and in test [12] was greater than 100 µM each time.
